This passage reports Ki results from BindingDB's records for doi:10.1016/j.chembiol.2010.07.016 (Cyclacel, 2010).

What all share (assay): In Vitro Kinase Assay
Assay [1] deals with Cyclin-dependent kinase 4 (Homo sapiens, UniProt P11802). An excerpt:
(§1) Kinase assay using cyclin-dependant kinases (CDK).

Assay [2] has as its target Cyclin-dependent kinase 2 (Homo sapiens, UniProt P24941).
Source text: as §1

The target in assay [3] is Cyclin-dependent kinase 1 (Homo sapiens, UniProt P06493).
Source text: as §1

Assay [4] addresses Cyclin-dependent kinase 7 (Homo sapiens, UniProt P50613).
Source text: as §1

The target of assay [5] is Cyclin-dependent kinase 9 (Homo sapiens, UniProt P50750).
Cyclin-dependent kinase 9, sequence (P50750 whole entry): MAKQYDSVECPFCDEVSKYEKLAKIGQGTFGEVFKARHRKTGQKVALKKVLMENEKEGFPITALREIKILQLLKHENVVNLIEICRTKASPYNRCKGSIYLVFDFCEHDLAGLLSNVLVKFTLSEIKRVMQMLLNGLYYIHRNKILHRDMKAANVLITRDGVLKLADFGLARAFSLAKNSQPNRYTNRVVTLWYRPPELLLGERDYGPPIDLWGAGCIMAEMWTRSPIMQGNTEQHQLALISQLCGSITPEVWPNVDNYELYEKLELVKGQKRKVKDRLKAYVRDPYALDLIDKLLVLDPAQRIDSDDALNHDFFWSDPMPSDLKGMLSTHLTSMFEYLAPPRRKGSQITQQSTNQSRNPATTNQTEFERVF
Source text: as §1

Cyclin-dependent kinase 7, sequence (P50613 whole entry): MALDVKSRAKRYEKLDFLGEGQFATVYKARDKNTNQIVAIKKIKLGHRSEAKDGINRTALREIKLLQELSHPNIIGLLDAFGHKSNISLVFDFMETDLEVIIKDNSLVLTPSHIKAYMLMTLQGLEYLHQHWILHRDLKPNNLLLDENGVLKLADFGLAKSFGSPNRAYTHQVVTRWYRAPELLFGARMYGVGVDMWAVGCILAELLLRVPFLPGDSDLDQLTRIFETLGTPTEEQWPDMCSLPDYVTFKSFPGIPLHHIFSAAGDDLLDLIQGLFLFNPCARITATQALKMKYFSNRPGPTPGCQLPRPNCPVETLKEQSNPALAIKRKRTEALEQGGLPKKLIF
Cyclin-dependent kinase 4, sequence (P11802 whole entry): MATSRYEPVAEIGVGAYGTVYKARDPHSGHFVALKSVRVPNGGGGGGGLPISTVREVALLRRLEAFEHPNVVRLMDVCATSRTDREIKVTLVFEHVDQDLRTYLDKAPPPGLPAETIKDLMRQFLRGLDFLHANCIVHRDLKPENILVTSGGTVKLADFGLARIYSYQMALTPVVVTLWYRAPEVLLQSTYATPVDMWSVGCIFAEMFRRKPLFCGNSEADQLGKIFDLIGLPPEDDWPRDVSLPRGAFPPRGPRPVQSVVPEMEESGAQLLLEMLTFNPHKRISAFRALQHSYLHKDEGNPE
Cyclin-dependent kinase 1, sequence (P06493 whole entry): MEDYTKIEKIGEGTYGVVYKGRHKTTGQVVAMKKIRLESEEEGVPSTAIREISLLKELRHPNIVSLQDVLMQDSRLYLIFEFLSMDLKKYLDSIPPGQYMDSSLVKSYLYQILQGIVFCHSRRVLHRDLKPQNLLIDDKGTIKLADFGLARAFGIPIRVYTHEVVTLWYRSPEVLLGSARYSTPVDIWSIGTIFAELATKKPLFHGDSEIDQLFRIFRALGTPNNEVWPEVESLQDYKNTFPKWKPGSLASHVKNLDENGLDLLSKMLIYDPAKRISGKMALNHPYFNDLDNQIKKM

Take `CCNS(=O)(=O)c1cccc(Nc2nccc(-c3sc(N)nc3C)n2)c1` [CDK Inhibitor, 8]: the inhibition constant (Ki) is 391 nM in assay [1]; 47 nM in assay [2]; 660 nM in assay [3]; 193 nM in assay [4]; 5.9 nM in assay [5].

For the compound `CNc1nc(C)c(-c2ccnc(Nc3cccc(S(=O)(=O)NC)c3)n2)s1` [CDK Inhibitor, 4], the Ki was found to be 20 nM in assay [1]; 33 nM in assay [2]; 334 nM in assay [3]; 107 nM in assay [4]; 4.3 nM in assay [5].

As for `Cc1ccc(Nc2nccc(-c3sc(N)nc3C)n2)cc1S(=O)(=O)N1CCOCC1` [CDK Inhibitor, 10], the Ki in assay [1] is greater than 500 nM; in assay [2] it was greater than 500 nM; in assay [3] it was greater than 500 nM; in assay [4], 304 nM; in assay [5], 8.5 nM.

Take `Cc1c(-c2ccnc(Nc3ccc(N4CCNCC4)cc3)n2)sc(=O)n1C` [CDK Inhibitor, 14]: the Ki in assay [1] worked out at 68 nM; in assay [2] it was 149 nM; in assay [3], 449 nM; in assay [4], 2.3 nM; in assay [5], 0.38 nM.

As for `CNc1nc(C)c(-c2ccnc(Nc3cccc(S(N)(=O)=O)c3)n2)s1` [CDK Inhibitor, 3], the Ki in assay [1] amounted to 9.1 nM; in assay [2] it was 2.4 nM; in assay [3], 67 nM; in assay [4] it was 25 nM; in assay [5], 0.8 nM.

Take `CNS(=O)(=O)c1cccc(Nc2nccc(-c3sc(N)nc3C)n2)c1` [CDK Inhibitor, 5]: the Ki is 163 nM in assay [1]; 26 nM in assay [2]; 233 nM in assay [3]; 127 nM in assay [4]; 4.3 nM in assay [5].

For `CNc1nc(C)c(-c2ccnc(Nc3cccc(S(C)(=O)=O)c3)n2)s1` [CDK Inhibitor, 6], the Ki in assay [1] turned out to be 94 nM; in assay [2], 1.6 nM; in assay [3], 86 nM; in assay [4] it was 91 nM; in assay [5], 0.29 nM.

`Cc1c(-c2ccnc(Nc3cccc(C#N)c3)n2)sc(=O)n1C` [CDK Inhibitor, 12]: the figures for the inhibition constant (Ki) in assay [1] and in assay [2] were 102 nM and 0.52 nM, respectively.

In the case of `Cc1ccc(Nc2nccc(-c3sc(=O)n(C)c3C)n2)cc1[N+](=O)[O-]` [CDK Inhibitor, 13], the Ki was 60 nM in assay [1]; 28 nM in assay [2]; 3 nM in assay [3]; 0.56 nM in assay [4]; 5.9 nM in assay [5].

In assay [1], `COCCNS(=O)(=O)c1ccc(Nc2nccc(-c3sc(=O)n(C)c3C)n2)cc1` [CDK Inhibitor, 11] gave an inhibition constant Ki greater than 500 nM.

With `CCNc1nc(C)c(-c2ccnc(Nc3cccc(S(C)(=O)=O)c3)n2)s1` [CDK Inhibitor, 7], the Ki was 139 nM in assay [1]; 7.6 nM in assay [2]; greater than 500 nM in assay [3]; 47 nM in assay [4]; 0.96 nM in assay [5].

Take `CNc1nc(C)c(-c2ccnc(Nc3ccc(C)c(S(=O)(=O)N4CCOCC4)c3)n2)s1` [CDK Inhibitor, 9]: the inhibition constant (Ki) in assay [1] is greater than 500 nM; in assay [2] it was greater than 500 nM; in assay [3] it was greater than 500 nM; in assay [4] it was 3470 nM; in assay [5], 6.7 nM.

For the compound `CCNc1nc(C)c(-c2ccnc(Nc3cccc(S(N)(=O)=O)c3)n2)s1` [CDK Inhibitor, 2], the inhibitory constant (Ki) is 132 nM in assay [1]; 403 nM in assay [2]; 691 nM in assay [3]; 56 nM in assay [4]; 4.5 nM in assay [5].
